The test system of the experiment is CD2F1 mice, L1210 leukemia ip, survival T/C. In words: NCI In Vivo Anticancer Drug Screen. Data for tumor model L1210 Leukemia (intraperitoneal) in CD2F1 (CDF1) mice. The following applies: higher = longer survival. In a few lines:
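Each value reflects a quotient of treated over vehicle control outcomes in mice with a transplanted tumor.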

Where [1] appears, read: endpoint: mean survival time, dose: 50.0 mg/kg/injection, schedule: Q01DX001 (ip), vehicle: saline with Tween-80.
Where [2] appears, read: endpoint: mean survival time, dose: 100.0 mg/kg/injection, schedule: Q01DX001 (ip), vehicle: saline with Tween-80.
Setting [3] is: endpoint: mean survival time, dose: 200.0 mg/kg/injection, schedule: Q01DX001 (ip), vehicle: saline with Tween-80.

Several values for one entry are separate records, joined by “and”; a condition that tells them apart may be missing. Equal entries are not always repeated. Inconclusive results and toxic doses are left out.

Consider `CC1=C(N=[N+]=[N-])C(=O)c2ccccc2C1=O`, for which the T/C by setting is: (endpoint: mean survival time, dose: 100.0 mg/kg/injection, schedule: Q04DX002 (ip), vehicle: saline with Tween-80) 91 % of control; (endpoint: mean survival time, dose: 200.0 mg/kg/injection, schedule: Q04DX002 (ip), vehicle: saline with Tween-80) 100 % of control.

Consider `CCCCSc1ncn(C)c1[N+](=O)[O-]`, for which the T/C by setting is: under setting [1], 101 % of control; under setting [2], 103 % of control; under setting [3], 101 % of control.

In the case of `C=CCC(C)(C)/C=N/N`, the T/C is, setting by setting: (endpoint: mean survival time, dose: 37.5 mg/kg/injection, schedule: Q01DX009 (ip), vehicle: saline) 101 % of control; (endpoint: mean survival time, dose: 75.0 mg/kg/injection, schedule: Q01DX001 (ip), vehicle: saline) 95 % of control; (endpoint: mean survival time, dose: 75.0 mg/kg/injection, schedule: Q01DX009 (ip), vehicle: saline) 100 % of control; (endpoint: mean survival time, dose: 150.0 mg/kg/injection, schedule: Q01DX001 (ip), vehicle: saline) 98 % of control; (endpoint: mean survival time, dose: 150.0 mg/kg/injection, schedule: Q01DX009 (ip), vehicle: saline) 107 % of control.

`CC1CC(C)CC(C)C(O)/C(C#N)=C/C=C/CC(C2CCCC2C(=O)O)OC(=O)CC(O)C(C)C1` (centres undefined): the T/C was 105 % of control (endpoint: mean survival time, dose: 1.56 mg/kg/injection, schedule: Q01DX009 (ip), vehicle: Klucel (hydroxypropylcellulose) (HPC)); 109 % of control (endpoint: mean survival time, dose: 3.13 mg/kg/injection, schedule: Q01DX009 (ip), vehicle: Klucel (hydroxypropylcellulose) (HPC)); 89 % of control and 96 % of control (endpoint: mean survival time, dose: 6.25 mg/kg/injection, schedule: Q01DX009 (ip), vehicle: Klucel (hydroxypropylcellulose) (HPC)).

Take `CC1CC(=O)OC2CC(C)(C)CC(=O)C12` (centres undefined): the T/C is, setting by setting: (endpoint: mean survival time, dose: 100.0 mg/kg/injection, schedule: Q01DX009 (ip), vehicle: saline) 104 % of control; (endpoint: mean survival time, dose: 100.0 mg/kg/injection, schedule: Q04DX003 (ip), vehicle: saline sonified) 98 % of control; (endpoint: mean survival time, dose: 200.0 mg/kg/injection, schedule: Q01DX009 (ip), vehicle: saline) 106 % of control; (endpoint: mean survival time, dose: 200.0 mg/kg/injection, schedule: Q04DX003 (ip), vehicle: saline sonified) 95 % of control; (endpoint: mean survival time, dose: 400.0 mg/kg/injection, schedule: Q01DX009 (ip), vehicle: saline) 104 % of control; (endpoint: mean survival time, dose: 400.0 mg/kg/injection, schedule: Q04DX003 (ip), vehicle: saline sonified) 95 % of control.

As for `Nc1ccc(C(=O)Nc2cccc(OCc3nc(N)nc(N)c3-c3ccc(Cl)cc3)c2)cc1`, the T/C by setting is: under setting [1], 93 % of control; under setting [2], 93 % of control; under setting [3], 93 % of control.

For the molecule `O=C(O)c1ccc(C(=O)O)c(C(=O)O)c1.[NH-]C1CCCCCC1[NH-].[Pt+2]`, the T/C runs as follows: (endpoint: mean survival time, dose: 3.75 mg/kg/injection, schedule: Q04DX003 (ip), vehicle: sodium bicarbonate) 159 % of control; (endpoint: mean survival time, dose: 7.5 mg/kg/injection, schedule: Q04DX003 (ip), vehicle: sodium bicarbonate) 156 % of control and 250 % of control; (endpoint: mean survival time, dose: 15.0 mg/kg/injection, schedule: Q04DX003 (ip), vehicle: sodium bicarbonate) 200 % of control and 219 % of control; (endpoint: mean survival time, dose: 30.0 mg/kg/injection, schedule: Q04DX003 (ip), vehicle: sodium bicarbonate) 105 % of control.

With `Fc1cc(F)c(F)c(-c2c(F)c(F)cc(F)c2F)c1F`, the T/C is 103 % of control (endpoint: mean survival time, dose: 50.0 mg/kg/injection, schedule: Q01DX009 (ip), vehicle: saline with Tween-80); 103 % of control (endpoint: mean survival time, dose: 100.0 mg/kg/injection, schedule: Q01DX009 (ip), vehicle: saline with Tween-80); 96 % of control (endpoint: mean survival time, dose: 200.0 mg/kg/injection, schedule: Q01DX009 (ip), vehicle: saline with Tween-80).

As for `N/C(=N/O)NO`, the T/C (endpoint: median survival time, dose: 50.0 mg/kg/injection, schedule: Q01DX005 (ip), vehicle: saline) was 109 % of control; the T/C (endpoint: median survival time, dose: 100.0 mg/kg/injection, schedule: Q01DX005 (ip), vehicle: saline) is 110 % of control and 112 % of control; the T/C (endpoint: median survival time, dose: 200.0 mg/kg/injection, schedule: Q01DX005 (ip), vehicle: saline) was 120 % of control and 123 % of control.

`O=C(O)/C=C(/CC(=O)O)C(=O)O`: the T/C was 98 % of control (endpoint: mean survival time, dose: 100.0 mg/kg/injection, schedule: Q04DX003 (ip), vehicle: saline) and 94 % of control (endpoint: mean survival time, dose: 200.0 mg/kg/injection, schedule: Q04DX003 (ip), vehicle: saline).

The values above are taken from PubChem BioAssay AID256 (DTP/NCI, 2004).
